In US8642770B2, “Indole derivative” (Takeda Pharmaceutical Company Limited, priority 2010, dated 2014):

Tests used:
[1] = test system: Dietary obese male F344/Jcl rats; experiment: Anorectic effect (food intake) in dietary obese male F344/Jcl rats; type: in vivo; conditions: Rattus norvegicus, 48 h; oral, 0.5% methylcellulose suspension (5 mg/mL) at 2 mL/kg, on start day and evening of next day; food intake from initial administration to 2 days later; vs control group; read-out: Food intake inhibition rate (%)
Text: Evaluation of Anorectic Effect Using Dietary Obese Male F344/Jcl Rats
Dietary obese male F344/Jcl rats (42-57-week-old) reared on a high-fat diet (Research Diets: D12451) from 5 weeks of age were used. From before the start of experiment, the rats were independently raised, a powder high-fat diet (Research Diets: D12451M) was given, tap water was orally administered for acclimation, and thereby the rats were habituated. The food intake from the evening of the day before the start of experiment to the next morning was measured, and the rats were grouped based on the food intake and the body weight of the previous day as indices. On the day of the start of experiment and in the evening of the next day, 0.5% methylcellulose solution was orally administered to the control group, and 0.5% methylcellulose suspension (5 mg/mL) of the test compound was orally administered to the compound administration group at 2 mL/kg (6 per group for both control group and compound administration group). The food intake from the initial administration to 2 days later was measured. The food intake inhibition rate of each compound administration group to the control group was calculated.

human MCHR1 [2] = biological target: T1, human MCHR1 (Homo sapiens, UniProt Q99705); experiment: Human MCH receptor 1 (MCHR1) competitive binding assay, [125I]-MCH(4-19), CHO cell membrane fraction; conditions: test compound 0.1 μM, human MCHR1-expressing CHO cell membrane, 25° C., 1 hr, read-out: Binding inhibition rate (0.1 μM)
T1 construct: expressed in transfected cells; host or cells: CHO cell clone 57 (membrane fraction)
Method: Determination of Human MCH Receptor 1 (MCHR1) Competitive Inhibitory Activity of Test Compound Using Binding Assay
Using human MCHR1(=SLC-1 receptor)-expressing CHO cell clone 57 and rat MCHR1-expressing CHO cell clone 44 described in WO01/82925, MCHR1-expressing CHO cellular membrane fractions were prepared by the following method. In phosphate buffered saline (pH 7.4) supplemented with 5 mM EDTA (ethylenediaminetetraacetic acid) were respectively suspended human and rat MCHR1-expressing CHO cells (1×10^8 cells) and centrifuged. Homogenate buffer (10 mL, 10 mM NaHCO3, 5 mM EDTA, pH 7.5, 0.5 mM PMSF (phenylmethylsulfonyl fluoride), 20 mg/L leupeptin, 4 mg/L E-64, 1 mg/L pepstatin A) was added to the pellets of the cells and, using Polytron Homogenizer, the mixture was homogenated. The supernatant obtained after centrifugation at 400×g for 10 min was further centrifuged at 100,000×g for 1 hr to give precipitate of the membrane fraction. The precipitate were suspended in 2 mL of assay buffer [20 mM Tris-HCl (pH 7.5), 5 mM EDTA, 0.5 mM PMSF, 20 mg/L leupeptin, 4 mg/L E-64, 1 mg/L pepstatin A]. The membrane fractions were suspended in assay buffer to a protein concentration of 2 mg/mL, and after dispensing, preserved at −80° C. and used upon thawing each time when in use.
The MCHR1 ligand binding inhibitory activity of the test compound was determined as follows. An MCHR1-expressing CHO cellular membrane fraction (175 μL) diluted with an assay buffer was dispensed to a 96 well polypropylene plate (3363, Corning). DMSO solution (2 μL), 100 μm cold MCH(1-19) diluted with DMSO solution (2 μL), or a test compound solution diluted with DMSO solution to various concentrations (2 μL) was added, and lastly, [^125I]-MCH(4-19) diluted with assay buffer (25 μL) was added to each well. The reaction mixture was reacted at 25° C. for 1 hr with stirring, and the reaction mixture was filtered by suction using a glass filter plate (GF/C, PerkinElmer). The filter was washed 3 times with a wash solution (300 μL, 50 mM Tris-HCl buffer, pH 7.5). The glass filter plate was dried, a liquid scintillator was added at 25 μL/well, and the residual radioactivity was measured by TopCount (PerkinElmer). The binding inhibition rate of the test compound was calculated by the following formula. Binding inhibition (%)=(radioactivity upon addition of test compound and hot MCH−radioactivity upon addition of cold MCH and hot MCH solution)/(radioactivity upon addition of DMSO solution and hot MCH−radioactivity upon addition of cold MCH and hot MCH solution)×100

human MCHR1 [3] = biological target: T1, human MCHR1; experiment: MCH receptor 1 antagonistic activity, Ca2+ mobilization assay in human MCHR1-expressing CHO cells; type: cell-based; conditions: test compound 0.1 μM; human MCHR1-expressing CHO cell; ligand MCH (4-19) peptide 20 nM; Fluo4 fluorescence; read-out: Inhibition rate (%)
Method: Measurement of MCH Receptor 1 Antagonistic Activity of Test Compound Using Ca^2+ Mobilization Assay
CHO cell (CHO dhfr^−, clone #4) expressing a recombinant human MCHR1 gene for Ca^2+ mobilization assay was prepared by us. The cell was cultured in MEMα medium [445 mL of MEMα medium without nucleic acid and added with 5 mL of Penicillin-Streptomycin (Invitrogen) and 50 mL of dialyzed fetal bovine serum]. An integrated dispensing function fluorometer (CellLux, PerkinElmer) was used for Ca^2+ mobilization assay. CHO cells were sown in a 96 well plate (type 3904, Corning) with a black plate wall and clear well bottom at a density of 20000 cells/well, and cultured in an incubator for about 24 hr at 5% CO2, 37° C. The medium was removed, and the cells were washed with phosphate buffered saline (PBS). A Ca^2+ indicator dye reagent (DOJINDO LABORATORIES, Ca screening no-wash kit Fluo4) was added at 90 μL/well, and the dye was allowed to penetrate into the cell for 30 min in an incubator at 5% CO2, 37° C. The plate was set on a plate reader, a test compound solution diluted with an assay buffer [10 mM HEPES (pH 7.4), 1× assay buffer containing 0.1% BSA (DOJINDO LABORATORIES, attached to Ca screening no-wash kit Fluo4)] or DMSO solution was added at 10 μL/well, and ligand MCH (4-19) peptide (final concentration 20 nM) diluted with assay buffer or DMSO was added at 50 μL/well, during which changes in intracellular fluorescence were measured at 2 second intervals. The antagonistic activity of the test compound was calculated and shown as an inhibition rate (%) wherein the intracellular fluorescence activity resulting from the stimulation by the addition of ligand MCH (4-19) peptide was 100% and that of the well added with DMSO solution alone was 0%.

T1 sequence (Q99705 whole entry): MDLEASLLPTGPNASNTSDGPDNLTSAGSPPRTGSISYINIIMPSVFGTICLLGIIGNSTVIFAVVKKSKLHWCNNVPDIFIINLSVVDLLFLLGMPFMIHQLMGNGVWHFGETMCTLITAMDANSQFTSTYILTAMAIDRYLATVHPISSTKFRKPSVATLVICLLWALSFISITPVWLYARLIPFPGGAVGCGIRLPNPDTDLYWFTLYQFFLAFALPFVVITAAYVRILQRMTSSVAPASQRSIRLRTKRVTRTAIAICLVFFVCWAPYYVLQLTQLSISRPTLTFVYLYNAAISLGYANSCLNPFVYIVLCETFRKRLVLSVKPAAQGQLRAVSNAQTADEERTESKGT

Row | melting point | inhibition at 0.1 µM (human MCHR1 [2]) | inhibition at 0.1 µM (human MCHR1 [3]) | SMILES | inhibition in vivo at 10 mg/kg [1]
1 | 166 to 167 °C | 98% | 99% | Cc1c(NC(=O)c2ccc(OC[C@@H]3CCCO3)cc2)ccc2c1cc(CNCC1CCOCC1)n2C [Example 55, N-(1,4-dimethyl-2-{[(tetrahydro-2H-pyran-4-ylmethyl)amino]methyl}-1H-indol-5-yl)-4-[(2S)-tetrahydrofuran-2-ylmethoxy]benzamide] | 22.7%
2 | 118 °C | 98% | 97% | Cc1c(NC(=O)c2ccc(OC[C@@H]3CCCO3)cc2F)ccc2c1cc(CNCC(C)(C)O)n2C [Example 60, 2-fluoro-N-(2-{[(2-hydroxy-2-methylpropyl)amino]methyl}-1,4-dimethyl-1H-indol-5-yl)-4-[(2S)-tetrahydrofuran-2-ylmethoxy]benzamide] | 19.9%
3 | 171 to 172 °C | 101% | 97% | Cc1c(NC(=O)c2ccc(OC[C@@H]3CCCO3)cc2)ccc2cc(CN[C@H]3CC[C@](C)(O)CC3)n(C)c12 [Example 84, N-(2-{[(trans-4-hydroxy-4-methylcyclohexyl)amino]methyl}-1,7-dimethyl-1H-indol-6-yl)-4-[(2S)-tetrahydrofuran-2-ylmethoxy]benzamide] | 12.1%
4 | 131 to 132 °C | 95% | 98% | Cc1c(NC(=O)c2ccc(OC[C@@H]3CCCO3)cc2F)ccc2cc(CN[C@H]3CC[C@](C)(O)CC3)n(C)c12 [Example 88, 2-fluoro-N-(2-{[(trans-4-hydroxy-4-methylcyclohexyl)amino]methyl}-1,7-dimethyl-1H-indol-6-yl)-4-[(2S)-tetrahydrofuran-2-ylmethoxy]benzamide] | 17.5%
